For 14 compounds, IC50 results are on record in US10538555B2, “Macrocyclic inhibitors of the PD-1/PD-L1 and CD80(B7-1)/PD-L1 protein/protein interactions” (BRISTOL-MYERS SQUIBB COMPANY, priority 2014, dated 2020).

*1 amine or outer side, *2 acyl side, *3 side chain or, on linkers, in order; H or OH if unused. Where a SMILES comes first, the peptide text is derived from it. Bridges are numbered along the chain shown (N, C = ends). [ ]: non-standard residue; d: D form. ξ: configuration not given here. X5 = O=C(O)CC[C@H](N[*:1])C(=O)C1C[C@H](O)C[C@H]1C(=O)[*:2]; Trp(βS-Me) = C[C@@H](c1c[nH]c2ccccc12)[C@H](N)C(=O)O; Phe(3,4,5-F3) = N[C@@H](Cc1cc(F)c(F)c(F)c1)C(=O)O; Phe(3,4-F2) = N[C@@H](Cc1ccc(F)c(F)c1)C(=O)O; NMePhe(4-F) = CN[C@@H](Cc1ccc(F)cc1)C(=O)O; 1Nal = N[C@@H](Cc1cccc2ccccc12)C(=O)O; d(cisHyp) = O=C(O)[C@H]1C[C@@H](O)CN1; Bta = N[C@@H](Cc1csc2ccccc12)C(=O)O; Hyp = O=C(O)[C@@H]1C[C@@H](O)CN1; NMeF = CN[C@@H](Cc1ccccc1)C(=O)O; dHyp = O=C(O)[C@H]1C[C@H](O)CN1; NMehSer = CN[C@@H](CCO)C(=O)O; NMeNle = CCCC[C@H](NC)C(=O)O; Pip = O=C(O)[C@@H]1CCCCN1; dPip = O=C(O)[C@H]1CCCCN1; hSer = N[C@@H](CCO)C(=O)O; NMeA = CN[C@@H](C)C(=O)O; Orn = NCCC[C@H](N)C(=O)O; dThz = O=C(O)[C@H]1CSCN1; Dab = NCC[C@H](N)C(=O)O; Dap = NC[C@H](N)C(=O)O; ξC = NC(CS)C(=O)O; Sar = CNCC(=O)O

The target of the first experiment is T1, Human PD-L1/PD-1 (Homo sapiens, UniProt Q9NZQ7).
T1 construct: TVMV protease cleavage site (C); made in house; host or cells: HEK293T cells
T1 sequence (Q9NZQ7 with tags, fused parts or gaps): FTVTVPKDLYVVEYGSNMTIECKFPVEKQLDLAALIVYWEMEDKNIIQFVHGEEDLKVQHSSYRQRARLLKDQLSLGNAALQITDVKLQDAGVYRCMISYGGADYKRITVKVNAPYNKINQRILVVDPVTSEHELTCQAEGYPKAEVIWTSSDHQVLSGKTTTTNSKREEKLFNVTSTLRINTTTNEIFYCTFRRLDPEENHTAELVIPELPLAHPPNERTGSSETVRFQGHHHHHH
The experiment is described as follows: HTRF Human PD-L1/PD-1 binding assay (PD-1-Ig/PD-L1-His). The note with it: PD-L1-His 10 nM, PD-1-Ig 20 nM; class symbol; read-out: HTRF Human PD-L1/PD-1 Binding Assay IC50 Range. The method, boiled down: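 Step 1: compound with PD-L1-His (10 nM final), 15 min. Step 2: PD-1-Ig (20 nM final), 15 min. Step 3: Eu-cryptate anti-Ig (1 nM) plus APC anti-His (20 nM), 30 min equilibration. Signal taken as 665 nm/620 nm ratio.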
`CCCC[C@H]1C(=O)N2CSC[C@@H]2C(=O)N[C@@H](CC(=O)O)C(=O)N[C@@H](C)C(=O)N(C)[C@@H](Cc2ccccc2)C(=O)N[C@@H](Cc2ccc(O)cc2)C(=O)N(C)CC(=O)N[C@@H](Cc2c[nH]c3ccccc23)C(=O)N[C@@H](Cc2ccc(O)cc2)C(=O)N[C@@H](CC(C)C)C(=O)N[C@H](C(=O)NCC(N)=O)CSCC(=O)N[C@@H](Cc2ccccc2)C(=O)N(C)[C@@H](Cc2ccccc2)C(=O)N1C` [Example 10085] ({CH2CO}-F[NMeF][NMeNle][dThz]DA[NMeF]Y[Sar]WYLCG-NH2; thioether N-13): the IC50 is 100 to 990 nM.

Regarding `CCCC[C@H]1C(=O)N(C)[C@@H](CCCC)C(=O)N[C@@H](CCC(=O)O)C(=O)N[C@H](C(=O)NCC(N)=O)CSCC(=O)N[C@@H](Cc2ccc(O)cc2)C(=O)N(C)[C@@H](C)C(=O)N[C@@H](CC(N)=O)C(=O)N2CCC[C@H]2C(=O)N[C@@H](Cc2cnc[nH]2)C(=O)N[C@@H](CCC(N)=O)C(=O)N2C[C@H](O)C[C@H]2C(=O)N[C@@H](Cc2c[nH]c3ccccc23)C(=O)N[C@@H](CCC(=O)O)C(=O)N[C@@H](Cc2c[nH]c3ccccc23)C(=O)N1C` [Example 5186] ({CH2CO}-Y[NMeA]NPHQ[Hyp]WEW[NMeNle][NMeNle]ECG-NH2; thioether N-14), the IC50 fell in the range of 1 to 9.9 nM.

With `CCCC[C@H]1C(=O)N(C)[C@@H](CCCC)C(=O)N[C@@H](CCCN)C(=O)N[C@H](C(=O)NCC(N)=O)CSCC(=O)N[C@@H](Cc2ccc(OC)cc2)C(=O)N(C)[C@@H](C)C(=O)N[C@@H](CC(=O)O)C(=O)N2CCC[C@H]2C(=O)N[C@@H](Cc2cnc[nH]2)C(=O)N[C@@H](CCC(=O)O)C(=O)N2C[C@H](O)C[C@H]2C(=O)N[C@@H](Cc2c[nH]c3ccccc23)C(=O)N[C@@H](CC(=O)O)C(=O)N[C@@H](Cc2c[nH]c3ccccc23)C(=O)N1C` [Example 7099] ({CH2CO}-Y(Me)[NMeA]DPHE[Hyp]WDW[NMeNle][NMeNle][Orn]CG-NH2; thioether N-14), the IC50 was in the range of 10 to 99.9 nM.

Turning to `CCCC[C@H]1C(=O)N(C)[C@@H](CCCC)C(=O)N[C@@H](CCCN)C(=O)N[C@H](C(=O)NCC(N)=O)CSCC(=O)N[C@@H](Cc2ccc(OC)cc2)C(=O)N(C)[C@@H](C)C(=O)N[C@@H](CC(N)=O)C(=O)N2CCC[C@H]2C(=O)N[C@@H](Cc2cnc[nH]2)C(=O)N[C@@H](CCC(=O)O)C(=O)C2C[C@H](O)C[C@H]2C(=O)N[C@@H](Cc2c[nH]c3ccccc23)C(=O)N[C@@H](CCN)C(=O)N[C@@H](Cc2c[nH]c3ccccc23)C(=O)N1C` (some centres unmarked) [Example 7087] ({CH2CO}-Y(Me)[NMeA]NPH[X5]W[Dab]W[NMeNle][NMeNle][Orn]CG-NH2; thioether N-13), the IC50 is 1 to 9.9 nM.

Consider `CCCC[C@H]1C(=O)N(C)CC(=O)N[C@@H](CC(=O)O)C(=O)N[C@@H](C(C)C)C(=O)N(C)[C@@H](Cc2ccccc2)C(=O)N[C@@H](Cc2ccc(O)cc2)C(=O)N(C)CC(=O)N[C@@H](Cc2c[nH]c3ccccc23)C(=O)N[C@@H](Cc2ccc(O)cc2)C(=O)N[C@@H](CC(C)C)C(=O)N[C@H](C(=O)NCC(N)=O)CSCC(=O)N[C@@H](Cc2cccc3ccccc23)C(=O)N(C)[C@@H](Cc2ccccc2)C(=O)N1C` [Example 3235] ({CH2CO}-[1Nal][NMeF][NMeNle][Sar]DV[NMeF]Y[Sar]WYLCG-NH2; thioether N-13), for which the IC50 is 1000 to 10000 nM.

Turning to `CCCC[C@H]1C(=O)N(C)[C@@H](CCCC)C(=O)N[C@@H](C)C(=O)N[C@H](C(=O)NCC(N)=O)CSCC(=O)N[C@@H](Cc2ccc(O)cc2)C(=O)N2CCCC[C@H]2C(=O)N[C@@H](CC(=O)O)C(=O)N2CCC[C@H]2C(=O)N[C@@H](Cc2cnc[nH]2)C(=O)N[C@@H](CCC(N)=O)C(=O)N2C[C@H](O)C[C@H]2C(=O)N[C@@H](Cc2c[nH]c3ccccc23)C(=O)N[C@@H](CO)C(=O)N[C@@H](Cc2c[nH]c3ccccc23)C(=O)N1C` [Example 1261] ({CH2CO}-Y[Pip]DPHQ[Hyp]WSW[NMeNle][NMeNle]ACG-NH2; thioether N-14), the IC50 fell in the range of 1 to 9.9 nM.

`CC(C)C[C@@H]1NC(=O)[C@H](Cc2ccc(O)cc2)NC(=O)[C@H](Cc2c[nH]c3ccccc23)NC(=O)[C@H]2CCCCN2C(=O)[C@H](CCC(=O)O)NC(=O)[C@H](Cc2ccccc2)N(C)C(=O)[C@H](C(C)C)NC(=O)[C@H](CC(=O)O)NC(=O)[C@H]2CCCN2C(=O)[C@H](Cc2ccccc2)N(C)C(=O)[C@H](Cc2ccc(F)cc2)N(C)C(=O)[C@H](Cc2cc(F)c(F)c(F)c2)NC(=O)CSC[C@@H](C(=O)NCC(N)=O)NC1=O` [Example 10614] ({CH2CO}-[Phe(3,4,5-F3)][NMePhe(4-F)][NMeF][dP]DV[NMeF]E[dPip]WYLCG-NH2; thioether N-13): the IC50 was in the range of 10 to 99.9 nM.

As for `CCCC[C@H]1C(=O)N(C)[C@@H](CCCC)C(=O)N[C@@H](CCC(=O)O)C(=O)N[C@H](C(=O)NCC(N)=O)CSCC(=O)N[C@@H](Cc2ccc(O)cc2)C(=O)N(C)[C@@H](C)C(=O)N[C@@H](CC(=O)O)C(=O)N2CCC[C@H]2C(=O)N[C@@H](CO)C(=O)N[C@@H](CCC(=O)O)C(=O)N2C[C@H](O)C[C@H]2C(=O)N[C@@H](Cc2c[nH]c3ccccc23)C(=O)N[C@@H](CO)C(=O)N[C@@H](Cc2c[nH]c3ccccc23)C(=O)N1C` [Example 5233] ({CH2CO}-Y[NMeA]DPSE[Hyp]WSW[NMeNle][NMeNle]ECG-NH2; thioether N-14), the IC50 lay within 1 to 9.9 nM.

Take `COCC[C@H]1C(=O)N2C[C@@H](O)C[C@@H]2C(=O)N[C@@H](CC(=O)O)C(=O)N[C@@H](C(C)C)C(=O)N(C)[C@@H](Cc2ccccc2)C(=O)N[C@@H](Cc2ccc(OC)cc2)C(=O)N2C[C@@H](O)C[C@@H]2C(=O)N[C@@H](Cc2c[nH]c3ccccc23)C(=O)N[C@@H](Cc2ccc(O)cc2)C(=O)N[C@@H](CC(C)C)C(=O)N[C@H](C(=O)NCC(N)=O)CSCC(=O)N[C@@H](Cc2ccc(F)c(F)c2)C(=O)N(C)[C@@H](Cc2ccccc2)C(=O)N1C` [Example 9235] ({CH2CO}-[Phe(3,4-F2)][NMeF][NMehSer](Me)[dHyp]DV[NMeF]Y(Me)[dHyp]WYLCG-NH2; thioether N-13): the IC50 is 1 to 9.9 nM.

Take `CCCC[C@H]1C(=O)N2C[C@H](O)C[C@@H]2C(=O)N[C@@H](CC(=O)O)C(=O)N[C@@H](C(C)C)C(=O)N(C)[C@@H](Cc2ccccc2)C(=O)N[C@@H](CCC(N)=O)C(=O)N2C[C@H](O)C[C@@H]2C(=O)N[C@@H](Cc2c[nH]c3ccccc23)C(=O)N[C@@H](Cc2ccc(O)cc2)C(=O)N[C@@H](CCC(=O)O)C(=O)N[C@H](C(=O)NCC(N)=O)CSCC(=O)N[C@@H](Cc2cc(F)c(F)c(F)c2)C(=O)N(C)[C@@H](Cc2ccccc2)C(=O)N1C` [Example 9357] ({CH2CO}-[Phe(3,4,5-F3)][NMeF][NMeNle][d(cisHyp)]DV[NMeF]Q[d(cisHyp)]WYECG-NH2; thioether N-13): the IC50 fell in the range of 10 to 99.9 nM.

`CCCC[C@H]1C(=O)N2C[C@H](O)C[C@@H]2C(=O)N[C@@H](CC(=O)O)C(=O)N[C@@H](C(C)C)C(=O)N(C)[C@@H](Cc2ccccc2)C(=O)N[C@@H](CCC(=O)O)C(=O)N2C[C@H](O)C[C@@H]2C(=O)N[C@@H](Cc2c[nH]c3ccccc23)C(=O)N[C@@H](Cc2ccc(O)cc2)C(=O)N[C@@H](CC(=O)O)C(=O)N[C@H](C(=O)NCC(N)=O)CSCC(=O)N[C@@H](Cc2cc(F)c(F)c(F)c2)C(=O)N(C)[C@@H](Cc2ccccc2)C(=O)N1C` [Example 9336] ({CH2CO}-[Phe(3,4,5-F3)][NMeF][NMeNle][d(cisHyp)]DV[NMeF]E[d(cisHyp)]WYDCG-NH2; thioether N-13): the IC50 fell in the range of 10 to 99.9 nM.

For `CCCC[C@H]1C(=O)N(C)[C@@H](CCCC)C(=O)N[C@@H](CCCNC(=N)N)C(=O)NC(C(=O)NCC(N)=O)CSCC(=O)N[C@@H](Cc2ccc(O)cc2)C(=O)N(C)[C@@H](C)C(=O)N[C@@H](CC(N)=O)C(=O)N2CCC[C@H]2C(=O)N[C@@H](CCO)C(=O)N[C@@H](CCO)C(=O)N2CCC[C@H]2C(=O)N[C@@H](Cc2c[nH]c3ccccc23)C(=O)N[C@@H](CO)C(=O)N[C@@H](Cc2csc3ccccc23)C(=O)N1C` (some centres unmarked) [Example 10020] ({CH2CO}-Y[NMeA]NP[hSer][hSer]PWS[Bta][NMeNle][NMeNle]R[ξC]G-NH2; thioether N-14), the IC50 fell in the range of 1 to 9.9 nM.

As to `CCCC[C@H]1C(=O)N2C[C@H](O)C[C@@H]2C(=O)N[C@@H](CC(=O)O)C(=O)N[C@@H](C(C)C)C(=O)N(C)[C@@H](Cc2ccccc2)C(=O)N[C@@H](Cc2ccc(O)cc2)C(=O)N2C[C@H](O)C[C@@H]2C(=O)N[C@@H](Cc2c[nH]c3ccccc23)C(=O)N[C@@H](Cc2ccc(O)cc2)C(=O)N[C@@H](CC(=O)O)C(=O)N[C@H](C(=O)NCC(N)=O)CSCC(=O)N[C@@H](Cc2cc(F)c(F)c(F)c2)C(=O)N(C)[C@@H](Cc2ccccc2)C(=O)N1C` [Example 9327] ({CH2CO}-[Phe(3,4,5-F3)][NMeF][NMeNle][d(cisHyp)]DV[NMeF]Y[d(cisHyp)]WYDCG-NH2; thioether N-13), the IC50 lay within 10 to 99.9 nM.

The same experiment, now with this note: PD-L1-His 10 nM, PD-1-Ig 20 nM; read-out: HTRF Human PD-L1/PD-1 Binding Assay IC50.
As to `CCCC[C@H]1C(=O)N(C)[C@@H](CCCC)C(=O)N[C@@H](CC(C)C)C(=O)N[C@H](C(=O)NCC(N)=O)CSCC(=O)N[C@@H](Cc2ccc(O)cc2)C(=O)N(C)[C@@H](C)C(=O)N[C@@H](CC(N)=O)C(=O)N2CCC[C@H]2C(=O)N[C@@H](CN)C(=O)N[C@@H](CC(C)C)C(=O)N2C[C@H](O)C[C@H]2C(=O)N[C@@H]([C@@H](C)c2c[nH]c3ccccc23)C(=O)N[C@@H](CO)C(=O)N[C@@H](Cc2c[nH]c3ccccc23)C(=O)N1C` [Example 10530] ({CH2CO}-Y[NMeA]NP[Dap]L[Hyp][Trp(βS-Me)]SW[NMeNle][NMeNle]LCG-NH2; thioether N-14), the IC50 is 15 nM.
